Data set [1] concerns the target T1, RecA (Escherichia coli, UniProt P0A7G6).
T1 construct: purchased USB Inc. (Cleveland, Ohio)
As to the kind of experiment: biochemical. The arrangement: species or system E. coli. As for the experimental part:
(Mazin et al., 2000, EMBO J. 19:1148-56). When indicated, chemical compounds in specified concentrations were added and incubation was continued for 30 min at 37° C. D-loop formation was initiated by addition of supercoiled pUC19 dsDNA (50 μM, nt) and carried out for 3 min at 37° C. The DNA products were deproteinized and analyzed as described above for the Rad51-promoted reaction.
(§1) IC50 values were calculated using GraphPad Prism V5.0 software and the sigmoidal dose-response function. The data were obtained from three independent repeats of experiments.

In the next data set the test system is MEF cells. As to the kind of experiment: Clonogenic survival assay, MEF. Format: cell-based, mouse. The protocol:
Briefly, MEF cells were trypsinized and the appropriate number of cells was replated on 10 cm tissue culture dishes. […] Cells were fixed and stained using staining solution (0.05% crystal violet, 50% methanol in PBS); colonies were counted using an AlphaImager 3400 (Alpha Innotech Inc.). The percent of survival was determined as described (Hall & Giccia, 2005, “Radiobiology for the Radiologist”, 6th Ed., Philadelphia, Pa.: Lippincott Williams & Wilkins, pp. 30-45). The percent of survival obtained from untreated cells was normalized to 100% survival.

In data set [2] the target is T1, RecA. As to the kind of experiment: Branch migration assay, RecA. In kind it is biochemical, E. coli. The conditions noted are these: B02 10-100 μM.
Description: Branch migration was initiated by addition of ^32P-labeled 5′-joint molecules (0.1 nM, molecules) that were produced by RecA-promoted reaction and was carried out for 30 min. The DNA products were deproteinized and analyzed in 1.5% agarose-TAE gels and quantified using a Storm 840 PhosphorImager (GE Healthcare).
The next data set addresses T2, RAD51 (Homo sapiens, UniProt Q06609).
T2 construct: made in house
T2 sequence (Q06609 1-339): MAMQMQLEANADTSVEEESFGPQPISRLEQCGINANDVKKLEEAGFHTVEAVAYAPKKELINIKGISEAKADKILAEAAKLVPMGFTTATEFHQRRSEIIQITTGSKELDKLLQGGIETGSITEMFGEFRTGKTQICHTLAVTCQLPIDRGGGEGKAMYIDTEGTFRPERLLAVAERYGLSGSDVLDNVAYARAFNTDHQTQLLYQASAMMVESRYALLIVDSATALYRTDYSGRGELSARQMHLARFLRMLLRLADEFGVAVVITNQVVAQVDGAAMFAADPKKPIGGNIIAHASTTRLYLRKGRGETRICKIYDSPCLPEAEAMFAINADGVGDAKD
As to the kind of experiment: D-loop assay for RAD51. Format: biochemical. The conditions noted are these: compounds 100 μM; RAD51 1 μM. As for the experimental part: When indicated, chemical compounds in question were added in specified concentrations and incubation was continued for 30 min at 37° C. D-loop formation was initiated by addition of supercoiled pUC19 dsDNA (50 μM, nt) and continued for 15 min. Reactions were stopped by addition of SDS to 1% (w/v) and proteinase K to 880 μg ml^−1 followed by incubation for 15 min at 37° C. […] The yield of joint molecules was expressed as a percentage of the total plasmid DNA.
The reaction was deproteinized and analyzed as described above.
as §1

In data set [3] the test system is RAD51 foci in 293 human embryonic kidney (HEK) cells. As to the kind of experiment: RAD51 foci formation. Format: cell-based. As for the experimental part:
2×10^5 log phase HEK-GFP cells were seeded in 3.5-cm tissue culture plates on glass coverslips pretreated with 0.01% poly-L-lysine (Sigma) and grown overnight. […] Cells were then exposed to 0.5 Gy IR using a Primus Linear Accelerator (Siemens) at […], 3 Gy/min followed by a 2-h incubation at 37° C. Cells were washed with phosphate-buffered saline (PBS) (8.1 mM Na2HPO4, 1.47 mM KH2PO4, 138 mM NaCl and 2.7 mM KCl, pH 7.4), extracted with PBS containing 0.2% Triton X-100 and 1 mM phenylmethanesulfonylfluoride (PMSF) for 5 min at 4° C., and fixed with PBS supplemented with 3.0% formaldehyde and 2.0% sucrose for 10 min. Cells were permeabilized with PBS containing 0.5% Triton X-100 for 5 min and blocked with PBS containing 3% BSA and 0.05% Tween 20 for 30 min at 23° C. Cells were treated with the polyclonal rabbit RAD51 antibodies (1:500 dilution) (a gift from Dr. Golub, Yale University) in PBS containing 3% BSA and 0.05% Triton X-100 overnight at 4° C., and then with Alexa Fluor 488 donkey antirabbit IgG (H+L) antibodies (1:1000 dilution) (Invitrogen) for 1 h at 23° C. followed by a 5-min staining with 500 ng/ml 4′,6-diamidino-2-phenylindole (DAPI) in PBS containing 0.05% Tween 20. Samples were washed in PBS containing 0.05% Tween 20, mounted in VectaShield™ (Vector Laboratories), and sealed with nail polish. The fluorescence images were obtained using an Olympus IX70 inverted microscope and iVision-Mac™ software (BioVision).

Entries after “also recorded” stand apart in the source; their conditions may differ.

T1 sequence (P0A7G6 whole entry): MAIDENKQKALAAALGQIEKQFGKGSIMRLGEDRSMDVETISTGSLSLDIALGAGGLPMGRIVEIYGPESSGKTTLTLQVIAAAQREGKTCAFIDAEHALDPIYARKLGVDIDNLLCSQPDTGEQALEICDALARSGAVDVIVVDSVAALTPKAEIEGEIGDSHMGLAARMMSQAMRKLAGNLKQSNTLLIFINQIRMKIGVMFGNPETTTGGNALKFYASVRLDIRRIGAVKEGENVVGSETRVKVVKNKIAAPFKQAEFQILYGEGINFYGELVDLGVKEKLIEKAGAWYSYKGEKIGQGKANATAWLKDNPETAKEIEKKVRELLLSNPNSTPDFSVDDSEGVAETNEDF

Consider `O=c1c2ccccc2nc(/C=C/c2cccnc2)n1Cc1ccccc1` [Compound B02, (E)-3-benzyl-2-(2-(pyridin-3-yl)vinyl)quinazolin-4(3H)-one], for which the IC50 (commonly the concentration that inhibits the measured activity by half) was more than 250 µM against RecA [1] (IC50 (RecA), RecA 1 μM, ssDNA 3 μM, dsDNA 50 μM) and more than 100 µM against RecA [1] (IC50 for RecA (D-loop), RecA 0.3 μM, ssDNA 0.9 μM, dsDNA 15 μM, B02 incubated with protein before ssDNA). Further, the “inhibition of RecA DNA strand exchange, in words” value against RecA [1] (up to 250 μM) is recorded as “no significant inhibition”. In addition, in the data set on MEF cells (B02 5 μM), the “sensitivity to cisDDP (cisplatin) and MMC” value is recorded as “more sensitive”. For the same compound, the “sensitivity to MMS” value in the data set on MEF cells (B02 5 μM co-treatment with MMS) was “enhancement of sensitivity”; in the data set on MEF cells (B02 5 μM plus AZD2281 1 μM versus AZD2281 only), “more sensitive”. Further, in the data set with MEF cells (B02 5 μM, MMC 1 μM), the “increase in sensitivity to MMC” value is “fivefold”. Besides, the “increase in sensitivity to cisplatin” value in the data set with MEF cells (B02 5 μM, cisplatin 32 μM) was “approximately 17 fold”. The “cellular viability, B02 alone” value with MEF cells (up to 5 μM, wild type MEF) is “No decrease of cellular viability; also recorded: did not have a substantial effect”. Besides, the “inhibition of branch migration activity of RecA” value against RecA [2] is given as “did not inhibit”. At RAD51, the “Joint Molecules (%)” value came out at 6.0 ± 0.5%. In addition, the “inhibition of IR-induced RAD51 foci formation, in words” value in data set [3] (B02 20 μM) is recorded as “inhibitory effect was smaller”. In data set [3] (B02 50 μM), the “decrease of average number of RAD51 foci per nucleus” value is reported as 4.4 fold. Besides, the “decrease of fraction of cells with RAD51 foci” value in data set [3] (B02 50 μM) was 3.8 fold. Moreover, in data set [3] (B02 50 μM, 0.5 Gy IR, without B02 72±10%), the “fraction of cells with RAD51 foci (≧1 focus)” value is 19±6%. Further, in data set [3] (B02 50 μM, without B02 53±11), the “average number of RAD51 foci per nucleus” value is reported as 12±4.

Values taken from US9750742B2, “Small molecular inhibitors of RAD51 recombinase and methods thereof” (Drexel University, priority 2011, dated 2017).
